Like-named read-outs stand apart in the source and are kept apart here.
Experiments:
[1] = biological target: HoblOBP3 (Holotrichia oblita, UniProt G9BWQ7); experiment: biochemical; type: binding
Experimental: (§1) N-phenyl-1-naphthylamine (1-NPN) was selected as a probe to measure the affinity of the 1-NPN fluorescent ligand to proteins. A 1-cm light path quartz cuvette was used, and the fluorescence spectra were recorded on a Lengguang 970 CRT spectrofluorimeter (Shanghai Jingmi, China) at room temperature in a right angle configuration. The parameter selection was such that the slit widths for both excitation and emission were 10 nm. 1-NPN was excited at 337 nm and the emission spectra were recorded between 350 and 550 nm. Spectra were recorded using high-speed scanning.
(§2) The 2 µM protein solution was dissolved in 50 mM Tris-HCl buffer with pH 7.4, and the ligands were dissolved in chromatographically pure methanol as a 1 mM stock solution. 1-NPN was dissolved in chromatographically pure methanol as a 1 mM stock solution.
(§3) To determine the dissociation constants, the intensity values corresponding to the maximum fluorescence emission were plotted against free ligand concentrations. Assuming that the protein was 100% active and that the stoichiometric ratio between the protein and ligand was 1:1 at saturation, the bound ligand was determined from the fluorescence intensity values. The curves were then linearized using Scatchard plots. The K1-NPN values were estimated using GraphPad Prism 5 Software by nonlinear regression for a unique binding site. The dissociation constants of the competitors (Ki) were calculated from the corresponding IC50 values using the following equation: Ki = [IC50]/1+[1-NPN]/K1-NPN. […] [1-NPN] represented the free concentration of 1-NPN, and K1-NPN represented the dissociation constant of the complex protein/1-NPN [76].

[2] = biological target: HoblOBP4 (Holotrichia oblita, UniProt G9BWQ8); experiment: biochemical; type: binding
Experimental: as §1, §2, §3

[3] = HoblOBP3, dash = IC50 exceeded 50 µM, read-out: IC50 (dash)
[4] = HoblOBP3, dash = ligand whose IC50 exceeded 50 µM, Ki not given, read-out: Ki (dash)
[5] = pH 7.4, HoblOBP3, at the ligand concentration 24 µM, protein and 1-NPN both 2 µM, read-out: Int (fluorescence intensity as percent of the initial fluorescence)
[6] = HoblOBP4, calculated from IC50 and K1-NPN, read-out: Ki
[7] = HoblOBP4, protein and 1-NPN both 2 µM, ligand titrated 2–50 µM, read-out: IC50 (concentration of ligand halving the initial fluorescence intensity)
[8] = pH 7.4, HoblOBP4, at the ligand concentration 24 µM, protein and 1-NPN both 2 µM, read-out: Int (fluorescence intensity as percent of the initial fluorescence)
[9] = HoblOBP3, at the ligand concentration 24 µM, protein and 1-NPN both 2 µM
[10] = HoblOBP4, at the ligand concentration 24 µM, protein and 1-NPN both 2 µM
[11] = pH 7.4, read-out: Int (fluorescence intensity as percent of the initial fluorescence)
[12] = HoblOBP4, dash = IC50 exceeded 50 µM, read-out: IC50 (dash)
[13] = HoblOBP4, dash = ligand whose IC50 exceeded 50 µM, Ki not given, read-out: Ki (dash)

Chain of HoblOBP3 (G9BWQ7 entry or part of it): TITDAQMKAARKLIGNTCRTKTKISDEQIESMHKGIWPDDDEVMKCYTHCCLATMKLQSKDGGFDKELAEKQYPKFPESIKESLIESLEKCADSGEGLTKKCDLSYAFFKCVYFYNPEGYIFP
Chain of HoblOBP4 (G9BWQ8 entry or part of it): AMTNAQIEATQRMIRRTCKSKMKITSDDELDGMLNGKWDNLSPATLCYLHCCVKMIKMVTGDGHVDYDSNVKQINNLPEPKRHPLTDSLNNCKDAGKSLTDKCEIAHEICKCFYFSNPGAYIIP

Compound	IC50 [1, 3]	Ki [1, 4]	activity at 24 µM [1, 5]	Ki [2, 6]	IC50 [2, 7]	activity at 24 µM [2, 8]	Int (fluorescence intensity as percent of the initial fluorescence) [1, 9]	Int (fluorescence intensity as percent of the initial fluorescence) [2, 10]	IC50 [1]	Ki [1]	IC50 [2]	Ki [2]	activity at 24 µM [1, 11]	activity at 24 µM [2, 11]	IC50 [2, 12]	Ki [2, 13]
CC(C)(C)C1CCC(O)CC1 (centres unmarked) [4-tert-Butyl cyclohexanol]	> 50 µM	> 50 µM	68%	14 µM	19 µM	49%	–	–	–	–	–	–	–	–	–	–
O=C1C=CCCC1 [2-Cyclohexen-1-one]	> 50 µM	> 50 µM	70%	16.9 µM	23 µM	49%	–	–	–	–	–	–	–	–	–	–
CCCCCCCCCO [1-Nonanol]	> 50 µM	> 50 µM	71%	11.8 µM	16 µM	46%	–	–	–	–	–	–	–	–	–	–
CCOC(=O)[C@@H]1CCCN1 [L-Proline ethyl ester]	> 50 µM	> 50 µM	–	14.7 µM	20 µM	–	70%	47%	–	–	–	–	–	–	–	–
C=C1CC/C=C(\C)CC[C@@H]2[C@@H]1CC2(C)C [β-Caryophyllene]	–	–	–	–	–	–	–	–	> 50 µM	> 50 µM	> 50 µM	> 50 µM	–	–	–	–
O=Cc1ccccc1 [Benzaldehyde]	–	–	–	–	–	–	–	–	> 50 µM	> 50 µM	17 µM	12.5 µM	68%	44%	–	–
CC(=O)/C=C/C1C(C)=CCCC1(C)C (stereo not drawn) [α-Ionone]	–	–	–	–	–	–	–	–	16 µM	10.4 µM	19 µM	14 µM	41%	45%	–	–
CC(C)=CCC/C(C)=C/CO [Geraniol]	–	–	–	–	–	–	–	–	> 50 µM	> 50 µM	16 µM	11.8 µM	79%	44%	–	–
CC/C=C\CCO [cis-3-Hexen-1-ol]	–	–	–	–	–	–	–	–	> 50 µM	> 50 µM	17 µM	12.5 µM	81%	46%	–	–
CC(C)[C@@H]1CC[C@@H](C)C[C@H]1OC(=O)c1ccccc1O [Menthyl salicylate]	> 50 µM	> 50 µM	–	–	–	–	75%	54%	–	–	–	–	–	–	> 50 µM	> 50 µM
CC[C@H](C)[C@H](N)C(=O)OC [L-Isoleucine methyl ester]	> 50 µM	> 50 µM	68%	17.7 µM	24 µM	49%	–	–	–	–	–	–	–	–	–	–
CCCCCCCCCC [Decane]	> 50 µM	> 50 µM	–	–	–	–	–	–	–	–	–	–	–	–	> 50 µM	> 50 µM
CCCCCC=O [1-Hexanal]	–	–	68%	–	–	42%	–	–	> 50 µM	> 50 µM	15 µM	11 µM	–	–	–	–
C=CC(O)CCCCC (centres unmarked) [1-Octen-3-ol]	> 50 µM	> 50 µM	86%	29.4 µM	40 µM	54%	–	–	–	–	–	–	–	–	–	–
CCC/C=C/C=O [trans-2-Hexenal]	–	–	–	–	–	–	–	–	> 50 µM	> 50 µM	11 µM	8.1 µM	74%	39%	–	–
CCCCOC(=O)c1ccccc1 [Butyl Benzoate]	> 50 µM	> 50 µM	69%	8.1 µM	11 µM	40%	–	–	–	–	–	–	–	–	–	–
C=CC(=C)CCC=C(C)C [Myrcene]	> 50 µM	> 50 µM	74%	–	–	56%	–	–	–	–	–	–	–	–	> 50 µM	> 50 µM
